# Where a name gives a salt, the structure may show the parent alone.
row,Compound,melting point
1,"CC(C)n1c(/C=C/[C@@H](O)C[C@@H](O)CC(=O)[O-])c(-c2ccc(F)cc2)c(-c2ccccc2)c1C(=O)Nc1cccc(S(N)(=O)=O)c1.[Na+] [Example 126, (3R,5S)-7-[3-(4-Fluoro-phenyl)-1-isopropyl-4-phenyl-5-(3-sulfamoyl-phenylcarbamoyl)-1H-pyrrol-2-yl]-3,5-dihydroxy-hept-6-enoic Acid Sodium Salt]",225 to 227 °C
2,"CC(C)n1c(CC[C@@H](O)C[C@@H](O)CC(=O)[O-])c(-c2ccc(F)cc2)c(-c2ccc(F)cc2)c1C(=O)NCc1ccc(C(=O)[O-])cc1.[Na+].[Na+] [Example 162, (3R,5R)-4-({[5-(6-Carboxy-3,5-dihydroxy-hexyl)-3,4-bis-(4-fluoro-phenyl)-1-isopropyl-1H-pyrrole-2-carbonyl]-amino}-methyl)-benzoic Acid Disodium Salt]",298 to 300 °C
3,"CC(C)n1c(CC[C@@H](O)C[C@@H](O)CC(=O)[O-])c(-c2ccc(F)cc2)c(-c2ccc(F)cc2)c1C(=O)Nc1cccc(O)c1.[Na+] [Example 135, (3R,5R)-7-[3,4-Bis-(4-fluoro-phenyl)-5-(3-hydroxy-phenylcarbamoyl)-1-isopropyl-1H-pyrrol-2-yl]-3,5-dihydroxy-heptanoic Acid Sodium Salt]",220 to 222 °C
4,"CCNC(=O)c1c(-c2ccccc2)c(-c2ccc(F)cc2)c(/C=C/[C@@H](O)C[C@@H](O)CC(=O)[O-])n1C(C)C.[Na+] [Example 159, (3R,5S)-7-[5-Ethylcarbamoyl-3-(4-fluoro-phenyl)-1-isopropyl-4-phenyl-1H-pyrrol-2-yl]-3,5-dihydroxy-hept-6-enoic Acid Sodium Salt]",226 to 228 °C
5,"CC(C)OC(=O)c1ccc(CNC(=O)c2c(-c3ccccc3)c(-c3ccc(F)cc3)c(CC[C@@H](O)C[C@@H](O)CC(=O)[O-])n2C(C)C)cc1.[Na+] [Example 148, (3R,5R)-7-[3-(4-Fluoro-phenyl)-5-(4-isopropoxycarbonyl-benzylcarbamoyl)-1-isopropyl-4-phenyl-1H-pyrrol-2-yl]-3,5-dihydroxy-heptanoic Acid Sodium Salt]",199 to 201 °C
6,"CC(C)n1c(CC[C@@H](O)C[C@@H](O)CC(=O)[O-])c(-c2ccc(F)cc2)c(-c2ccccc2)c1C(=O)NCc1cccc(C#N)c1.[Na+] [Example 146, (3R,5R)-7-[5-(3-Cyano-benzylcarbamoyl)-3-(4-fluoro-phenyl)-1-isopropyl-4-phenyl-1H-pyrrol-2-yl]-3,5-dihydroxy-heptanoic Acid Sodium Salt]",180 to 182 °C
7,"CCc1cccc(NC(=O)c2c(-c3ccc(F)cc3)c(-c3ccc(F)cc3)c(/C=C/[C@@H](O)C[C@@H](O)CC(=O)[O-])n2C(C)C)c1.[Na+] [Example 141, (3R,5S)-7-[5-(3-Ethyl-phenylcarbamoyl)-3,4-bis-(4-fluoro-phenyl)-1-isopropyl-1H-pyrrol-2-yl]-3,5-dihydroxy-hept-6-enoic Acid Sodium Salt]",229 to 230 °C
8,"CC(C)n1c(CC[C@@H](O)C[C@@H](O)CC(=O)[O-])c(-c2ccc(F)cc2)c(-c2ccccc2)c1C(=O)N(c1ccccn1)c1ccccn1.[Na+] [Example 123, (3R,5R)-7-[5-(Di-pyridin-2-yl-carbamoyl)-3-(4-fluoro-phenyl)-1-isopropyl-4-phenyl-1H-pyrrol-2-yl]-3,5-dihydroxy-heptanoic Acid Sodium Salt]",223 to 225 °C (dec.)
9,"CC(C)n1c(CC[C@@H](O)C[C@@H](O)CC(=O)[O-])c(-c2ccc(F)cc2)c(-c2ccc(F)cc2)c1C(=O)Nc1ccccc1O.[Na+] [Example 134, (3R,5R)-7-[3,4-Bis-(4-fluoro-phenyl)-5-(2-hydroxy-phenylcarbamoyl)-1-isopropyl-1H-pyrrol-2-yl]-3,5-dihydroxy-heptanoic Acid Sodium Salt]",222 to 223 °C
10,"CC(C)n1c(CC[C@@H](O)C[C@@H](O)CC(=O)O)c(-c2ccc(F)cc2)c(-c2ccc(F)cc2)c1C(=O)Nc1ccc(S(N)(=O)=O)cc1 (as salt: sodium) [Example 11, (3R,5R)-7-[3,4-Bis-(4-fluoro-phenyl)-1-isopropyl-5-(4-sulfamoyl-phenylcarbamoyl)-1H-pyrrol-2-yl]-3,5-dihydroxy-heptanoic Acid Sodium Salt]",261 to 263 °C
11,"CC(C)n1c(CCC(O)C[C@@H](O)CC(=O)O)c(-c2ccc(F)cc2)c(-c2ccccc2)c1C(=O)Nc1ccc(F)cc1 (stereo partly drawn) (as salt: sodium) [Example 8, (3R)-7-[3-(4-Fluoro-phenyl)-5-(4-fluoro-phenylcarbamoyl)-1-isopropyl-4-phenyl-1H-pyrrol-2-yl]-3,5-dihydroxy-heptanoic Acid Sodium Salt]",240 to 242 °C
12,"CC(C)n1c(CC[C@@H](O)C[C@@H](O)CC(=O)[O-])c(-c2ccc(F)cc2)c(-c2ccc(F)cc2)c1C(=O)Nc1ccc(O)cc1.[Na+] [Example 133, (3R,5R)-7-[3,4-Bis-(4-fluoro-phenyl)-5-(4-hydroxy-phenylcarbamoyl)-1-isopropyl-1H-pyrrol-2-yl]-3,5-dihydroxy-heptanoic Acid Sodium Salt]",228 to 230 °C
13,"CC(C)n1c(CC[C@@H](O)C[C@@H](O)CC(=O)[O-])c(-c2ccc(F)cc2)c(-c2ccccc2)c1C(=O)NCCc1ccccc1.[Na+] [Example 91, (3R,5R)-7-[3-(4-Fluorophenyl)-1-isopropyl-5-(phenethylcarbamoyl)-4-phenyl-1H-pyrrol-2-yl]-3,5-dihydroxyheptanoic Acid Sodium Salt]",197 to 200 °C
14,"CC(C)n1c(CC[C@@H](O)C[C@@H](O)CC(=O)[O-])c(-c2ccc(F)cc2)c(-c2ccccc2)c1C(=O)Nc1cccc(S(N)(=O)=O)c1.[Na+] [Example 125, (3R,5R)-7-[3-(4-Fluoro-phenyl)-1-isopropyl-4-phenyl-5-(3-sulfamoyl-phenylcarbamoyl)-1H-pyrrol-2-yl]-3,5-dihydroxy-heptanoic Acid Sodium Salt]",227 to 229 °C
15,"CCNC(=O)c1c(-c2ccccc2)c(-c2ccc(F)cc2)c(CC[C@@H](O)C[C@@H](O)CC(=O)[O-])n1C(C)C.[Na+] [Example 158, (3R,5R)-7-[5-Ethylcarbamoyl-3-(4-fluoro-phenyl)-1-isopropyl-4-phenyl-1H-pyrrol-2-yl]-3,5-dihydroxy-heptanoic Acid Sodium Salt]",203 to 205 °C
16,"COC(=O)c1ccc(NC(=O)c2c(-c3ccccc3)c(-c3ccc(F)cc3)c(CC[C@@H](O)C[C@@H](O)CC(=O)[O-])n2C(C)C)cc1.[Na+] [Example 116, (3R,5R)-4-{[5-(6-Carboxy-3,5-dihydroxy-hexyl)-4-(4-fluoro-phenyl)-1-isopropyl-3-phenyl-1H-pyrrole-2-carbonyl]-amino}-benzoic Acid Methyl Ester Sodium Salt]",188 to 191 °C (dec.)
17,"CC(C)n1c(CC[C@@H](O)C[C@@H](O)CC(=O)[O-])c(-c2ccc(F)cc2)c(-c2ccccc2)c1C(=O)N[C@@H](C)c1ccccc1.[Na+] [Example 115, (3R,5R)-7-[3-(4-Fluoro-phenyl)-1-isopropyl-4-phenyl-5-((S)-1-phenyl-ethylcarbamoyl)-1H-pyrrol-2-yl]-3,5-dihydroxy-heptanoic Acid Sodium Salt]",227 to 229 °C (dec.)
18,"COC(=O)c1cccc(CNC(=O)c2c(-c3ccccc3)c(-c3ccc(F)cc3)c(/C=C/[C@@H](O)C[C@@H](O)CC(=O)[O-])n2C(C)C)c1.[Na+] [Example 151, (3R,5S)-7-[3-(4-Fluoro-phenyl)-1-isopropyl-5-(3-methoxycarbonyl-benzylcarbamoyl)-4-phenyl-1H-pyrrol-2-yl]-3,5-dihydroxy-hept-6-enoic Acid Sodium Salt]",171 to 174 °C
19,"CC(C)n1c(CC[C@@H](O)C[C@@H](O)CC(=O)[O-])c(-c2ccc(F)cc2)c(-c2ccc(F)cc2)c1C(=O)Nc1ccccn1.[Na+] [Example 120, (3R,5R)-7-[3,4-Bis-(4-fluoro-phenyl)-1-isopropyl-5-(pyridin-2-ylcarbamoyl)-1H-pyrrol-2-yl]-3,5-dihydroxy-heptanoic Acid Sodium Salt]",217 to 219 °C (dec.)
20,"CC(C)n1c(CC[C@@H](O)C[C@@H](O)CC(=O)[O-])c(-c2ccc(F)cc2)c(-c2ccccc2)c1C(=O)NCc1ccc(C#N)cc1.[Na+] [Example 144, (3R,5R)-7-[5-(4-Cyano-benzylcarbamoyl)-3-(4-fluoro-phenyl)-1-isopropyl-4-phenyl-1H-pyrrol-2-yl]-3,5-dihydroxy-heptanoic Acid Sodium Salt]",178 to 180 °C
21,"CC(C)n1c(C=C[C@H](O)C[C@@H](O)CC(=O)[O-])c(-c2ccc(F)cc2)c(-c2ccc(F)cc2)c1C(=O)Nc1ccc(CS(C)(=O)=O)cc1.[Na+] [Example 106, (3R,5R)-7-[3,4-Bis-(4-fluoro-phenyl)-1-isopropyl-5-(4-methanesulfonylmethyl-phenyl-carbamoyl)-1H-pyrrol-2-yl]-3,5-dihydroxy-hept-6-enoic Acid, Sodium Salt]",256 °C (dec.)
22,"CC(C)n1c(CC[C@@H](O)C[C@@H](O)CC(=O)[O-])c(-c2ccc(F)cc2)c(-c2ccccc2)c1C(=O)NCc1cccc(C(=O)[O-])c1.[Na+].[Na+] [Example 163, (3R,5R)-3-({[5-(6-Carboxy-3,5-dihydroxy-hexyl)-4-(4-fluoro-phenyl)-1-isopropyl-3-phenyl-1H-pyrrole-2-carbonyl]-amino}-methyl)-benzoic Acid Disodium Salt]",240 to 245 °C
23,"COc1cccc(NC(=O)c2c(-c3ccc(F)cc3)c(-c3ccc(F)cc3)c(CC[C@@H](O)C[C@@H](O)CC(=O)[O-])n2C(C)C)c1.[Na+] [Example 136, (3R,5R)-7-[3,4-Bis-(4-fluoro-phenyl)-1-isopropyl-5-(3-methoxy-phenylcarbamoyl)-1H-pyrrol-2-yl]-3,5-dihydroxy-heptanoic Acid Sodium Salt]",215 to 217 °C
24,"CC(C)n1c(CC[C@@H](O)C[C@@H](O)CC(=O)[O-])c(-c2ccc(F)cc2)c(-c2ccc(F)cc2)c1C(=O)Nc1ccc(C(=O)N(C)C)cc1.[Na+] [Example 85, (3R,5R)-7-[5-(4-dimethylcarbamoyl-phenylcarbamoyl)-3,4-bis-(4-fluoro-phenyl)-1-isopropyl-1H-pyrrol-yl]-3,5-dihydroxy-heptanoate Sodium Salt]",220 to 223 °C
